# Assay results published in patent US6608088B1, “Use of donerezil for the treatment of functional and/or organic pain syndromes” (priority 1998, dated 2003).
# Counter-ions that a name gives are not always drawn.
# Tests used:
# [1] = human, in vivo
# [2] = system: primary fibromyalgia; assay: Treatment of patients with primary fibromyalgia; assay type: in vivo; conditions: 16 patients, same conditions as migraine tests (5 mg daily)
# From the text: Systemic pain of muscles, tendons, viscera (oesophagus, stomach, colon); these syndromes are considered particularly difficult to hale.
# [3] = system: pain syndromes caused by denervation or amputation; assay: Treatment of patients with pain syndromes caused by denervation; assay type: in vivo; conditions: five of nine patients, no advantage after antiinflammatory analgesics or opioids; same conditions as above (5 mg daily)
# Protocol: In the pain syndromes caused by denervation or amputation pain develops on the limb or body part which is denervated and therefore is insensible to nociceptive stimuli (“painful anaesthesia”).
# Nine patients who had no advantages after treatment with antiinflammatory analgesica or opioids were tested in the same conditions as above described.
# [4] = system: migraine attacks longer than 72 h; assay: Acute treatment of patients with migraine attacks longer than 72 h; assay type: in vivo; conditions: 8 patients, 20 mg acutely given
compound,measurement,setting,value
"COc1cc2c(cc1OC)C(=O)C(CC1CCN(Cc3ccccc3)CC1)C2 (centres unmarked) [Donepezil hydrochloride, 1H-Inden-1-one, 2,3-dihydro-5,6-dimethoxy-2-[[1-(phenylmethyl)4-piperidinyl]methyl]-, hydrochloride]",tolerance to the treatment,[1],high tolerance
same,cases treated with improvement of the patient's conditions,[2],60%
same,cases with total disappearance of the pain,[2],10%
same,improvement of conditions,[3],50-80%
same,results of acute treatment of migraine attacks,[4],highly satisfactory
